The values below come from article PMC3799893 (Recent results in cancer research. Fortschritte der …, 2013).

This experiment concerns the target MC1R on B16/F10 murine melanoma cells (Mus musculus, UniProt Q01727). Put plainly: In vitro competitive binding assay.

Sequence of MC1R on B16/F10 murine melanoma cells (Q01727 whole entry): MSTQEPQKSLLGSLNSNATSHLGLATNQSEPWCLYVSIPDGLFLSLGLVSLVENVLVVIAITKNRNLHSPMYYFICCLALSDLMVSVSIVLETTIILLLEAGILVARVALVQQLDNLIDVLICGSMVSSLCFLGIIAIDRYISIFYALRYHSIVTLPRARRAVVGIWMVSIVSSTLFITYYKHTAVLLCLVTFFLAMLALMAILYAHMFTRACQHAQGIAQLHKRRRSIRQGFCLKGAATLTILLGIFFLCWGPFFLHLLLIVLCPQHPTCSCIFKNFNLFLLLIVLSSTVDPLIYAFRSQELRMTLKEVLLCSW

In general, IC50 refers to the concentration that gives 50% inhibition. The molecule `CSCC[C@H](NC(=O)[C@H](CO)NC(=O)[C@H](Cc1ccc(O)cc1)NC(=O)[C@H](CO)NC(=O)CN1CCN(CC(=O)O)CCN(CC(=O)O)CCN(CC(=O)O)CC1)C(=O)N[C@@H](CCC(=O)O)C(=O)N[C@@H](Cc1c[nH]cn1)C(=O)N[C@@H](Cc1ccccc1)C(=O)N[C@@H](CCCNC(=N)N)C(=O)N[C@@H](Cc1c[nH]c2ccccc12)C(=O)NCC(=O)N[C@@H](CCCCN)C(=O)N1CCC[C@H]1C(=O)N[C@H](C(N)=O)C(C)C` [DOTA-a-MSH] displayed an IC50 of 1.8 ± 0.3 nM.
